What all share (format): functional
Test [1] concerns Pyricularia oryzae. The experiment in a line: Antifungal activity against drug-sensitive Magnaporthe oryzae infected six-leaf stage of rice plant assessed as reduction of susceptible lesion number per leaf area at 2 time MIC treated 24 hr before fungal infection measured after 6 days relative to control. Also on record: scale not given: the % may be the effect or the level left.

Test [2] has as its system Pyricularia oryzae. Briefly: Antifungal activity against drug-sensitive Magnaporthe oryzae infected six-leaf stage of rice plant assessed as disease recovery treated 24 hr before fungal infection measured after 24 hr.
Test [3] has as its system Pyricularia oryzae. The experiment in a line: Antifungal activity against Magnaporthe oryzae infected six-leaf stage of rice plant assessed susceptible lesion number per leaf area at MIC treated 24 hr before fungal infection measured after 24 hr.
Test [4] deals with Pyricularia oryzae. The experiment in a line: Antifungal activity against Magnaporthe oryzae infected six-leaf stage of rice plant assessed susceptible lesion number per leaf area at 4 time MIC treated 24 hr before fungal infection measured after 24 hr.
For test [5], the system named is Pyricularia oryzae. Briefly: Antifungal activity against Magnaporthe oryzae infected six-leaf stage of rice plant assessed susceptible lesion number per leaf area at 2 time MIC treated 24 hr before fungal infection measured after 24 hr.
Test [6] concerns Pyricularia oryzae. Briefly: Antifungal activity against Magnaporthe oryzae infected six-leaf stage of rice plant assessed as disease recovery at MIC treated 24 hr before fungal infection measured after 24 hr.
The subject of test [7] is Pyricularia oryzae. The experiment in a line: Antifungal activity against Magnaporthe oryzae infected six-leaf stage of rice plant assessed as disease recovery at 2 time MIC treated 24 hr before fungal infection measured after 24 hr.
The subject of test [8] is Pyricularia oryzae. Briefly: Antifungal activity against Magnaporthe oryzae infected six-leaf stage of rice plant assessed susceptible lesion number per leaf area at 8 time MIC treated 24 hr before fungal infection measured after 24 hr.
In test [9] the test system is Pyricularia oryzae. The experiment in a line: Antifungal activity against drug-sensitive Magnaporthe oryzae infected six-leaf stage of rice plant assessed susceptible lesion number per leaf area treated 24 hr before fungal infection measured after 24 hr.
For test [10], the system named is Pyricularia oryzae. Briefly: Antifungal activity against drug-sensitive Magnaporthe oryzae infected six-leaf stage of rice plant assessed as reduction of disease recovery at 2 time MIC treated 24 hr before fungal infection measured after 6 days relative to control. Also on record: scale not given: the % may be the effect or the level left.
In test [11] the test system is Pyricularia oryzae. The experiment in a line: Antifungal activity against Magnaporthe oryzae infected six-leaf stage of rice plant assessed as disease recovery at 8 time MIC treated 24 hr before fungal infection measured after 24 hr.
Test [12] relates to Pyricularia oryzae. The experiment in a line: Antifungal activity against Magnaporthe oryzae infected six-leaf stage of rice plant assessed as disease recovery at 4 time MIC treated 24 hr before fungal infection measured after 24 hr.

Regarding `CCOP(=O)(Sc1ccccc1)Sc1ccccc1` [EDIFENPHOS], the Activity in test [1] is listed as 63.5%; in [2] it was 0.27%; in test [3], 0.19 cm2; in test [4], 0.07 cm2; in test [5], 0.14 cm2; in test [6] it was 0.49%. For the same compound, the Activity worked out at 0.35% in test [7]; 0.03 cm2 in [8]; 0.1 cm2 in [9]; 55.6% in test [10]; 0.08% in test [11]; 0.18% in test [12].
For `CC(C)OP(=O)(OC(C)C)SCc1ccccc1` [IPROBENFOS], the Activity in [1] was 28.1%; in [2] it was 0.8%; in [3], 1.28 cm2; in test [4], 0.93 cm2; in [5], 1.13 cm2; in test [6], 1.23%. Besides, the Activity amounted to 1.17% in [7]; 0.39 cm2 in test [8]; 0.73 cm2 in test [9]; 28.8% in test [10]; 0.45% in [11]; 0.87% in test [12].

These data come from ChEMBL document CHEMBL3045284 (Crop Prot, 2009).
